Results: patent US4703107A, “Water-soluble acylated derivatives of peptides or amino acids, their preparation and their use” (priority 1983, dated 1987)
Values after ≈ are worked out from the molar mass of the structure shown.

Columns and labels:
[1] = system: leucemic cells L1210, Lewis lung carcinoma "3LL"; assay: Penetration into and death of tumor cells; assay type: cell-based
[2] = Solubility in distilled water / aqueous solution; assay type: physicochemical
Method: The solubility of the PHA-L-Ala-L-Ala-L-Pro-L-Ala-AEC is greater than 80 mg/ml in distilled water or a buffer with a pH between 3 and 9.
The solubility of this compound in distilled water is 2.0 mM/l at 20° C.
The influence of the length of the N-acylating polyhydroxyalcanoyl group on the water solubility of fluorogenic substrates is shown in Table III in the case of a chymotrypsin specific substrate PHA-L-Ala-L-Ala-L-Phe-7-amido-4-methylcoumarin.

| SMILES | penetration into tumor cells ([1]; leucemic cells L1210, Lewis lung carcinoma 3LL) | death of tumor cells ([1]; tumor cells) | solubility ([2]; Table III, water solubility, 20° C., read-out: SOLUBILITY (mM AT 20° C.)) | solubility in distilled water ([2]; distilled water, at 20° C.) |
| --- | --- | --- | --- | --- |
| COc1cccc2c1C(=O)c1c(O)c3c(c(O)c1C2=O)C[C@@](O)(C(=O)CO)C[C@@H]3O[C@H]1C[C@H](NC(=O)[C@@H](N)CC(C)C)[C@H](O)[C@H](C)O1 [L-Leu-Adriamycine, L-Leu-Adriamycin] | penetrates the tumor cells | causes the death of these cells | – | – |
| Cc1cc(=O)oc2cc(NC(=O)[C@H](Cc3ccccc3)NC(=O)[C@H](C)NC(=O)[C@H](C)NC(=O)[C@H](O)[C@H](O)[C@H](O)CO)ccc12 [ribonoyl-L-Ala-L-Ala-L-Phe-AMC] | – | – | 2 mM (≈ 1230 µg/mL) | 2.0 mM/l |
